This note sets out measurements from paper PMC6832219, “Synthesis of Novel Baicalein Amino Acid Derivatives and Biological Evaluation as Neuroprotective Agents” (Molecules, 2019).

Data set [1] relates to H9C2 cells. The data set can be described thus: Toxicity on normal H9C2 cells (MTT assay). It counts as cell-based. As to conditions: MTT; for viability at 6.25 µM / viability at 12.5 µM / viability at 25 µM / viability at 50 µM: H9C2 cells, read-out: Survival Rate (%); for IC50: normal H9C2 cells. How it is done: To study cytotoxicity on normal cells, the cytotoxicity of compounds against normal H9C2 cells were tested.
(§1) The SH-SY5Y ([…]) and H9C2 ([…]) cell lines were obtained from the Chinese Academy of Medical Sciences and Peking Union Medical College. All of the cell lines were grown in dulbecco’s modified eagle medium (DMEM) with 10% (v/v) fetal bovine serum (FBS) and 1% (v/v) penicillin/streptomycin (Thermo Technologies, New York, NY, USA), under a humidified atmosphere containing 5% CO2 at 37 °C. The baicalein derivatives were dissolved in DMSO (Sigma, St. Louis, MO, USA) and added at various concentrations to the cell culture.
(§2) The protective effect of these compounds was evaluated on SH-SY5Y and H9C2 cell lines via the MTT method. The cells growing in the logarithmic phase were cultured in 96-well plates at a density 3 × 10^3 cells/well and incubated for 24 h. Then each well was treated with the required concentrations (50 µM concentrations, 25 µM concentrations, 12.5µM concentrations, 6.25 µM concentrations, and 3.125 µM concentrations) of baicalein derivatives, and incubated 36 h at 37 °C with 5% CO2. After that, the cells were induced by H2O2 (final concentration, […]) for 12 h. Control-differentiated cells were injected with new growth media at equal amounts. Before […] MTT solution (5 mg/mL) was added to each well, the cell culture fluid was discarded, and […] fresh cell culture fluid was added. The plate was incubated for a further 4 h at 37 °C. The cell supernatant medium was removed carefully, without disturbing the attached cells, and formazan crystals were solubilized by adding 150 μL DMSO into each well. The absorbance was measured at 490 nm with a plate reader (BIORAD 550 spectrophotometer, Bio-rad Life Science Development Ltd., Beijing, China). H2O2 was dissolved in DMEM medium. Wells without drugs were used as blanks. The EC50 values were defined as the concentrations that causes the maximum effect of 50%; IC50 values were defined as the concentration of compound which gives 50% growth inhibition, and were calculated using the GraphPad Prism 5. The proliferation rates of damaged SH-SY5Y cells were calculated in the following formula (1): [OD490 (compound) − OD490 (CoCl2)]/[OD490 (NGF) − OD490 (CoCl2)] × 100%(1) The EC50 values were using the equation −pEC50 = log Cmax − log 2 × (ΣP − 0.75 + 0.25Pmax + 0.25Pmin)(2) where Cmax is the maximum concentration, ΣP is the sum of proliferation rates, Pmax is the maximum value of the proliferation rate, and Pmin is the minimum value of the proliferation rate. Cell viability was expressed as a percentage of the control.
The inhibition rate was calculated in the following equation: % inhibition = 1 − (Sample group OD/Control group OD) × 100%(3)

For data set [2], the system named is H9C2 cells. The data set is described as follows: Toxicity on normal H9C2 cells (MTT assay). The data set is classed as cell-based. As to conditions: read-out: Survival Rate (%).
In a further data set the test system is injured SH-SY5Y cells. The data set is described as follows: Protective effect against tert-butyl hydroperoxide-induced SH-SY5Y neurotoxicity cells (MTT assay).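 On Proliferation Rate (%): 0% equals CoCl2-injured cells and 100% equals NGF-treated cells.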 The data set is classed as cell-based. As to conditions: Homo sapiens; for viability at 3.125 µM / viability at 6.25 µM / viability at 12.5 µM / viability at 25 µM / viability at 50 µM: injured SH-SY5Y cells, read-out: Proliferation Rate (%); for EC50: tert-butyl hydroperoxide-induced SH-SY5Y neurotoxicity, read-out: EC50 for protecting injured SH-SY5Y cells. The protocol: The protective effects of baicalein derivatives in vitro was evaluated against tert-butyl, hydroperoxide-induced, SH-SY5Y neurotoxicity cells using an MTT assay. In addition, their toxicity evaluation was tested on normal H9C2 cells. The resulting proliferation rates (%) at different concentrations, as well as their 50% effective concentrations (EC50) for protecting damaged SH-SY5Y cells of the baicalein amino acid derivatives, are summarized in Table 2.
as §1, §2

With `CC(C)(C)C(NC(=O)OCc1ccccc1)C(=O)Oc1c(O)cc2oc(-c3ccccc3)cc(=O)c2c1O` (stereo not shown) [Compound 3, 5,7-dihydroxy-4-oxo-2-phenyl-4H-chromen-6-yl 2-{[(benzyloxy)carbonyl]amino}-3,3-dimethylbutanoate], the melting point worked out at 170.1 °C. For the same compound, in the data set with H9C2 cells [1], the viability at 6.25 µM amounted to 144%, the viability at 12.5 µM came to 137%, the viability at 25 µM came out at 135% and the viability at 50 µM is 132%. Also, the IC50 in the data set with H9C2 cells [1] is more than 100 µM. Besides, the viability at 100 µM with H9C2 cells [2] came to 104%. Further, in the data set on injured SH-SY5Y cells, the viability at 3.125 µM is 15.3%, the viability at 6.25 µM was 14.8%, the viability at 12.5 µM was found to be 8.1% and the viability at 25 µM was determined as 0.15%. Moreover, in the data set on injured SH-SY5Y cells, the viability at 50 µM is -0.18% and the EC50 was determined as 62.4 µM.
`CN(CC(=O)Oc1cc2oc(-c3ccccc3)cc(=O)c2c(O)c1OC(=O)CN(C)C(=O)OC(C)(C)C)C(=O)OC(C)(C)C` [Compound 13, 7-[(2-{[(tert-butoxy)carbonyl](methyl)amino}acetyl)oxy]-5-hydroxy-4-oxo-2-phenyl-4H-chromen-6-yl 2-{[(tert-butoxy)carbonyl](methyl)amino}acetate] showed a melting point of 205.1 °C. Besides, in the data set on H9C2 cells [1], the viability at 6.25 µM turned out to be 215%, the viability at 12.5 µM is 166%, the viability at 25 µM is 152% and the viability at 50 µM was found to be 132%. Also, the IC50 in the data set with H9C2 cells [1] was more than 100 µM. For the same compound, in the data set with H9C2 cells [2], the viability at 100 µM worked out at 123%. For the same compound, in the data set with injured SH-SY5Y cells, the viability at 3.125 µM amounted to 40.1%, the viability at 6.25 µM was determined as 92.1%, the viability at 12.5 µM is 91.5% and the viability at 25 µM stood at 73%. Further, in the data set on injured SH-SY5Y cells, the viability at 50 µM came out at 65.9% and the EC50 turned out to be 5.42 µM.
`CC(C)CC(NC(=O)OC(C)(C)C)C(=O)Oc1cc2oc(-c3ccccc3)cc(=O)c2c(O)c1O` (stereo not shown) [Compound 15, 5,6-dihydroxy-4-oxo-2-phenyl-4H-chromen-7-yl 2-{[(tert-butoxy)carbonyl]amino}-4-methyl-pentanoate] displayed a melting point of 199.3 °C. Further, in the data set on H9C2 cells [1], the viability at 6.25 µM worked out at 196%, the viability at 12.5 µM worked out at 193%, the viability at 25 µM is 177% and the viability at 50 µM came out at 173%. For the same compound, the IC50 with H9C2 cells [1] is more than 100 µM. In addition, the viability at 100 µM in the data set on H9C2 cells [2] came to 159%. In addition, in the data set on injured SH-SY5Y cells, the viability at 3.125 µM stood at 17.8%, the viability at 6.25 µM is 42.8%, the viability at 12.5 µM came to 42.5% and the viability at 25 µM was determined as 41.3%. In the data set on injured SH-SY5Y cells, the viability at 50 µM came to 22.3% and the EC50 turned out to be 23.9 µM.
With `O=C(NCCCCC(NC(=O)OCc1ccccc1)C(=O)Oc1cc2oc(-c3ccccc3)cc(=O)c2c(O)c1O)OCc1ccccc1` (stereo not shown) [Compound 12, 5,6-dihydroxy-4-oxo-2-phenyl-4H-chromen-7-yl 2,6-di{[(benzyloxy)carbonyl]amino} hexanoate], the melting point was 144.9 °C. Besides, in the data set with H9C2 cells [1], the viability at 6.25 µM was 216%, the viability at 12.5 µM was determined as 207%, the viability at 25 µM was found to be 200% and the viability at 50 µM is 187%. In the data set on H9C2 cells [1], this compound registered an IC50 of more than 100 µM. Also, in the data set on H9C2 cells [2], the viability at 100 µM came out at 184%. Besides, in the data set with injured SH-SY5Y cells, the viability at 3.125 µM was determined as 1.1%, the viability at 6.25 µM is 2.35%, the viability at 12.5 µM worked out at 7.83% and the viability at 25 µM came to 20.8%. In the data set on injured SH-SY5Y cells, the viability at 50 µM was 7.34% and the EC50 came out at 61.6 µM.
For `O=C(CC(NC(=O)OCc1ccccc1)C(=O)Oc1c(O)cc2oc(-c3ccccc3)cc(=O)c2c1O)OCc1ccccc1` (stereo not shown) [Compound 9, 1-benzyl 5,7-dihydroxy-4-oxo-2-phenyl-4H-chromen-6-yl 3-{[(benzyloxy)carbonyl]amino} butanedioate], the melting point was 100.7 °C. In the data set on H9C2 cells [1], the viability at 6.25 µM came to 153%, the viability at 12.5 µM stood at 133%, the viability at 25 µM was found to be 130% and the viability at 50 µM amounted to 115%. This compound also gave an IC50 in the data set with H9C2 cells [1] of more than 100 µM. Further, the viability at 100 µM with H9C2 cells [2] was found to be 107%. Also, in the data set with injured SH-SY5Y cells, the viability at 3.125 µM came out at 28.1%, the viability at 6.25 µM came to 98.2%, the viability at 12.5 µM is 79.6% and the viability at 25 µM was found to be 101%. In addition, in the data set on injured SH-SY5Y cells, the viability at 50 µM turned out to be 84.2% and the EC50 stood at 4.47 µM.
Take `CC(C)C(NC(=O)OCc1ccccc1)C(=O)Oc1c(O)cc2oc(-c3ccccc3)cc(=O)c2c1O` (stereo not shown) [Compound 1, 5,7-dihydroxy-4-oxo-2-phenyl-4H-chromen-6-yl 2-{[(benzyloxy)carbonyl]amino}-3-methylbutanoate]: the melting point amounted to 199.7 °C. Besides, in the data set on H9C2 cells [1], the viability at 6.25 µM is 270%, the viability at 12.5 µM was determined as 260%, the viability at 25 µM turned out to be 231% and the viability at 50 µM is 216%. In addition, in the data set on H9C2 cells [1], the IC50 is more than 100 µM. The viability at 100 µM in the data set on H9C2 cells [2] is 204%. Also, in the data set on injured SH-SY5Y cells, the viability at 3.125 µM is 56%, the viability at 6.25 µM is 84.3%, the viability at 12.5 µM was 81.8% and the viability at 25 µM amounted to 67.3%. In the data set with injured SH-SY5Y cells, the viability at 50 µM turned out to be 54.9% and the EC50 amounted to 6.07 µM.
Compound `CN(CC(=O)Oc1cc2oc(-c3ccccc3)cc(=O)c2c(O)c1O)C(=O)OC(C)(C)C` [Compound 5, 5,6-dihydroxy-4-oxo-2-phenyl-4H-chromen-7-yl 2{[(tert-butoxy)carbonyl](methyl)amino}acetate] displayed a melting point of 218 °C. Further, in the data set on H9C2 cells [1], the viability at 6.25 µM came to 116%, the viability at 12.5 µM came to 116%, the viability at 25 µM worked out at 105% and the viability at 50 µM turned out to be 95.1%. The IC50 in the data set on H9C2 cells [1] is more than 100 µM. In addition, the viability at 100 µM in the data set with H9C2 cells [2] came out at 76.9%. In addition, in the data set on injured SH-SY5Y cells, the viability at 3.125 µM stood at 28.4%, the viability at 6.25 µM worked out at 37.6%, the viability at 12.5 µM stood at 76.4% and the viability at 25 µM is 78.1%. In addition, in the data set on injured SH-SY5Y cells, the viability at 50 µM worked out at 60.7% and the EC50 came out at 9.96 µM.
